This is an account of results in PubChem BioAssay (NCI).

Common to all, as to assay: inhibition of tumour cell growth, NCI panel, 48 h
The subject of assay [1] is HCC-2998 colon.
In assay [2] the test system is SK-MEL-28 melanoma.
For assay [3], the system named is TK-10 renal.
Assay [4] deals with SN12C renal.
For assay [5], the system named is OVCAR-3 ovarian.
Assay [6] has as its system 786-0 renal.
In assay [7] the test system is U251 CNS.
The subject of assay [8] is A498 renal.
Assay [9] has as its system HS 578T breast.
Assay [10] has as its system HOP-62 NSCLC.
In assay [11] the test system is RXF 393 renal.
Assay [12] concerns SW-620 colon.
The subject of assay [13] is UACC-257 melanoma.
The test system of assay [14] is MALME-3M melanoma.
Assay [15] has as its system MDA-N.
Assay [16] relates to COLO 205 colon.
Assay [17] deals with SR leukemia.

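Test compounds were applied to cells in 96-well plates for 48 hours at 5 doses. TGI denotes the concentration required for complete inhibition of growth.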 Where a SMILES comes first, the peptide text is derived from it. The star is where a group is joined. Boc = CC(C)(C)OC(=O)*

Regarding `O=C(/C=C\Nc1ccccc1O)C(Cl)(Cl)Cl`, the TGI is 52.6 µM in assay [1]; greater than 100 µM in [2]; greater than 100 µM in assay [3]; greater than 100 µM in [4]; 43.1 µM in assay [5]; 64.7 µM in assay [6]. In addition, the TGI in [7] was 81.8 µM; in assay [8] it was greater than 100 µM; in assay [9], greater than 100 µM; in assay [10] it was 52.7 µM; in assay [11], greater than 100 µM; in assay [12], greater than 100 µM. In addition, the TGI in [13] is greater than 100 µM; in assay [14], greater than 100 µM; in assay [15] it was 59.2 µM; in assay [16], greater than 100 µM.
For the compound `CSc1nncc2[nH]cnc12`, the TGI in assay [17], in assay [2], in [3], in assay [4], in assay [5] and in assay [6] was greater than 100 µM throughout. Moreover, the TGI in [7], in [8], in assay [9], in [10], in assay [11] and in assay [12] was greater than 100 µM in each case. The TGI in [13], in assay [15] and in assay [16] was greater than 100 µM throughout.
With `CCOC(=O)C(C)(C)/C=C\C(Cl)=C(Cl)Cl`, the TGI in assay [17], in assay [1], in assay [2], in assay [3], in assay [4] and in assay [5] was greater than 100 µM throughout. Besides, the TGI in assay [6], in assay [9], in assay [10], in assay [11], in assay [12] and in assay [13] was greater than 100 µM each time. For the same compound, the TGI in [14], in [15] and in assay [16] was greater than 100 µM each time.
Take `NC12CC3CC4C1CC1CC2C(C3)C4(N)C1`: the TGI in assay [2], in assay [3], in [4], in assay [5], in assay [6] and in assay [7] was greater than 100 µM throughout. In addition, the TGI in assay [8], in [9], in assay [10], in assay [11], in [12] and in assay [13] was greater than 100 µM throughout. The TGI in assay [14], in assay [15] and in assay [16] was greater than 100 µM throughout.
As to `CCOC(=O)c1cc(=O)oc2c1N(C)c1ncccc1N2`, the TGI in assay [17], in [1], in assay [2], in [3], in assay [4] and in assay [5] was greater than 100 µM in each case. For the same compound, the TGI in assay [6], in [7], in [8], in assay [9], in assay [10] and in [11] was greater than 100 µM in each case. For the same compound, the TGI in assay [12], in assay [13], in assay [15] and in [16] was greater than 100 µM each time.
On to `O=c1c(O)c(-c2cc(O)c(O)cc2O)oc2cc(O)c(C3OC(CO)C(O)C(O)C3O)c(O)c12` (stereo not drawn), for which the TGI in assay [17], in [2], in [3], in assay [4], in [5] and in assay [6] was greater than 100 µM each time. The TGI in assay [7], in [8], in assay [9], in assay [10], in assay [12] and in [13] was greater than 100 µM each time. In assay [15], this compound returned a TGI greater than 100 µM.
As to `CCOCC(NC(=O)C(CC(C)C)NC(=O)OC(C)(C)C)C(N)=O` (stereo not drawn) (Boc-Leu-Ser(Et)-NH2; configuration not given here), the TGI in [2] was 2.84 µM; in [3], greater than 100 µM; in assay [4] it was greater than 100 µM; in [5], greater than 100 µM; in assay [6], greater than 100 µM; in assay [7], 2.79 µM. The TGI in assay [8] was greater than 100 µM; in assay [9], greater than 100 µM; in [10] it was greater than 100 µM; in assay [11], greater than 100 µM; in assay [12] it was 3.27 µM; in assay [13], greater than 100 µM. Besides, the TGI in [14], in [15] and in assay [16] was greater than 100 µM each time.
`CN[C@@H](C)[C@H](OP(=O)(O)OC1[C@@H](O)[C@H](O)C(O)[C@H](O)[C@@H]1O)c1ccccc1` (stereo partly drawn): the TGI in [1], in assay [2], in assay [3], in assay [4], in assay [5] and in [6] was greater than 100 µM each time. The TGI in assay [7], in assay [8], in [9], in assay [10], in assay [12] and in assay [13] was greater than 100 µM throughout. The TGI in assay [14], in assay [15] and in assay [16] was greater than 100 µM throughout.
With `COc1cc(C(=O)Nc2c3ccccc3nc3ccccc23)cc(OC)c1OC`, the TGI in assay [1], in assay [2], in [3], in [4], in assay [5] and in assay [6] was greater than 100 µM in each case. In addition, the TGI is greater than 100 µM in assay [7]; greater than 100 µM in assay [9]; greater than 80.1 µM in [10]; greater than 100 µM in assay [11]; greater than 100 µM in assay [12]; greater than 100 µM in [13]. Also, the TGI in assay [14], in [15] and in assay [16] was greater than 100 µM throughout.
Consider `CC(=O)c1c(-c2ccccc2)c(-c2ccc(OCCN(C)C)cc2)n2ccccc12`, for which the TGI amounted to 27.7 µM in [1]; 28.6 µM in assay [2]; 32.1 µM in assay [3]; 29.4 µM in assay [4]; 32.8 µM in assay [5]; 32.2 µM in assay [6]. For the same compound, the TGI in assay [7] came to 31.3 µM; in assay [8] it was 39.3 µM; in [9], 42.2 µM; in [12], 32 µM; in [13], 28.9 µM; in assay [14], 24.4 µM. Moreover, the TGI was 29.2 µM in assay [15] and 27 µM in assay [16].
`CC(NC(=O)C(N)CC(=O)O)NC(=O)N1CCOCC1` (stereo not drawn): the TGI in [2], in assay [3], in [4], in assay [5], in assay [6] and in [7] was greater than 100 µM throughout. For the same compound, the TGI in assay [8], in assay [9], in [10], in assay [11], in [12] and in assay [13] was greater than 100 µM in each case. Besides, the TGI in [14], in assay [15] and in [16] was greater than 100 µM throughout.
For the compound `CC(=N/NC(=S)N1CCCCC1)/C(C)=N\NC(=S)N1CCCCC1`, the TGI in assay [1] was 3.48 µM; in [2], 3.99 µM; in assay [3], 3.24 µM; in assay [4] it was 3.2 µM; in [5], 3.39 µM; in assay [6] it was 3.1 µM. Also, the TGI in [8] worked out at 2.86 µM; in assay [9], 5.76 µM; in [10], 3.51 µM; in assay [11], 3.2 µM; in assay [13], 4.09 µM; in assay [14] it was 3.61 µM. In addition, the TGI was determined as 6.44 µM in assay [15] and 3.62 µM in assay [16].
As to `c1ccc(/N=C2\c3ccccc3CN2c2ccccn2)nc1`, the TGI in [1], in assay [2], in assay [3], in assay [4], in assay [5] and in assay [6] was greater than 100 µM in each case. For the same compound, the TGI in [7], in assay [8], in [9], in [10], in [11] and in assay [12] was greater than 100 µM each time. The TGI in assay [13], in [15] and in assay [16] was greater than 100 µM each time.
Take `O=C1/C(=C/c2cccs2)NC(=S)N1CN1CCOCC1`: the TGI in assay [17], in assay [2], in [3], in assay [4], in assay [5] and in assay [6] was greater than 100 µM throughout. In addition, the TGI in assay [7], in assay [8], in assay [9], in [10], in assay [12] and in assay [13] was greater than 100 µM in each case. The TGI in assay [15] and in assay [16] was greater than 100 µM in each case.
Consider `CC1=C(C(=O)NCC(C)O)CC(C(=O)NCC(C)O)=C(C)N1` (stereo not drawn), for which the TGI in [17], in assay [1], in assay [2], in assay [3], in [4] and in [5] was greater than 100 µM throughout. The TGI in [6], in [7], in assay [9], in [10], in assay [11] and in assay [12] was greater than 100 µM in each case. Also, the TGI in assay [13], in assay [15] and in assay [16] was greater than 100 µM each time.
`Cc1ccc2cccc3c2c1CC1(C3=O)S(=O)(=O)OCCOS1(=O)=O`: the TGI in assay [1], in [2], in [3], in assay [4], in [5] and in assay [6] was greater than 100 µM each time. For the same compound, the TGI in [7], in assay [8], in assay [9], in [10], in assay [11] and in assay [12] was greater than 100 µM throughout. The TGI in assay [13], in assay [14], in assay [15] and in assay [16] was greater than 100 µM in each case.
For the compound `CC1C(c2ccc3c(c2)OCO3)c2cc3c(cc2OC1N1CCCCC1)OCO3` (stereo not drawn), the TGI in assay [17], in assay [1], in assay [2], in assay [3], in assay [4] and in [5] was greater than 100 µM throughout. Besides, the TGI was greater than 100 µM in assay [6]; greater than 100 µM in [9]; greater than 100 µM in [10]; greater than 100 µM in assay [12]; greater than 100 µM in [13]; 48.6 µM in assay [15]. Besides, the TGI in assay [16] was greater than 100 µM.
For `Fc1cc(-c2ncc(Cl)cc2Cl)c2cccccc1-2`, the TGI in assay [1], in assay [3], in assay [5], in assay [6], in [9] and in assay [10] was greater than 100 µM each time. Moreover, the TGI in assay [11], in assay [13], in assay [14], in assay [15] and in [16] was greater than 100 µM each time.
In the case of `Clc1ccc2c(NCCNc3ccnc4cc(Cl)ccc34)ccnc2c1`, the TGI in [1] amounted to 28.5 µM; in assay [2], 32.5 µM; in [3] it was 34.6 µM; in [4], 33.4 µM; in [5], 28.3 µM; in assay [6], 28.2 µM. Besides, the TGI is 32.1 µM in assay [7]; 32.2 µM in assay [8]; greater than 100 µM in [9]; 30.1 µM in assay [10]; 36.1 µM in assay [11]; 31.3 µM in [12]. Moreover, the TGI was 32.3 µM in assay [13], greater than 100 µM in assay [14], 31.6 µM in assay [15] and 30.1 µM in assay [16].
